Data reported in PMC7101355, “Activation and self-inactivation mechanisms of the cyclic oligoadenylate-dependent CRISPR ribonuclease Csm6” (Nature Communications, 2020).

Legend:
EiCsm6 [1] = target: T1, EiCsm6 (Enterococcus italicus, UniProt E6LHV2); test: LC-MS degradation assay; RNaseAlert activation assay; assay type: biochemical; conditions: 25 uM cA6 and 25 uM protein, 37 °C, 1 h; also allosteric activator at CARF domain
T1 construct: gene csm6; recombinant from E. coli BL21 Star (DE3); N-terminal His6-TEV tag cut; full gene; homodimer, ligand site at the CARF domain interface
T1 sequence (E6LHV2 1-430): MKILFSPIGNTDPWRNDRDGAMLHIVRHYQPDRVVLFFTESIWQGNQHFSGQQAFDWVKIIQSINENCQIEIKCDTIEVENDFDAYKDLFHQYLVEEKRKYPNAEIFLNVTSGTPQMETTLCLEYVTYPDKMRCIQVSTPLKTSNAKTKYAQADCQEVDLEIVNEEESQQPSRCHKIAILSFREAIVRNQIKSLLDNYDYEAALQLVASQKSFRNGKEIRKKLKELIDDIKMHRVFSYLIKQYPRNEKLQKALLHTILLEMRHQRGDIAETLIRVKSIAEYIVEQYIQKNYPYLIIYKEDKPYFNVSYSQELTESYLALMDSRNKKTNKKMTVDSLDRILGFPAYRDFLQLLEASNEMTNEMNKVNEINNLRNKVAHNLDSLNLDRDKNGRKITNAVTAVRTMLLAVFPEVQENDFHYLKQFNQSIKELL

EiCsm6 [2] = target: T1, EiCsm6; test: fluorogenic RNaseAlert ribonuclease assay, initial velocities, variable Hill fit; assay type: biochemical; conditions: 5 nM EiCsm6, 10 mM HEPES pH 7.5, 50 mM KCl; allosteric activator at CARF domain, read-out HEPN RNase
EiCsm6 [3] = target: T1, EiCsm6; test: X-ray crystal structure of the complex, […] Å; assay type: binding; conditions: bound at the CARF domain dimer interface, one cFA6 per homodimer
[4] = target: the molecule itself; test: crystal structure; EiCsm6 (120 uM) co-crystallised with the cA6 mimic cFA6 (288 uM); 100 mM HEPES pH 7.5, 1.6 M ammonium sulfate, 25 mM lithium perchlorate; space group P1, four homodimers in the asymmetric unit; 2.4 A

Molecule: Nc1ncnc2c1ncn2[C@@H]1O[C@@H]2COP(=O)(O)O[C@H]3[C@@H](O)[C@H](n4cnc5c(N)ncnc54)O[C@@H]3COP(=O)(O)O[C@H]3[C@@H](O)[C@H](n4cnc5c(N)ncnc54)O[C@@H]3COP(=O)(O)O[C@H]3[C@@H](O)[C@H](n4cnc5c(N)ncnc54)O[C@@H]3COP(=O)(O)O[C@H]3[C@@H](O)[C@H](n4cnc5c(N)ncnc54)O[C@@H]3COP(=O)(O)O[C@H]3[C@@H](O)[C@H](n4cnc5c(N)ncnc54)O[C@@H]3COP(=O)(O)O[C@H]2[C@H]1O [cA6]
- LC-MS degradation assay; RNaseAlert activation assay (EiCsm6 [1]): revealing that cA6 was efficiently degraded to yield a mixture of products

Molecule: Nc1ncnc2c1ncn2[C@@H]1O[C@@H]2COP(=O)(O)O[C@H]3[C@@H](F)[C@H](n4cnc5c(N)ncnc54)O[C@@H]3COP(=O)(O)O[C@H]3[C@@H](F)[C@H](n4cnc5c(N)ncnc54)O[C@@H]3COP(=O)(O)O[C@H]3[C@@H](F)[C@H](n4cnc5c(N)ncnc54)O[C@@H]3COP(=O)(O)O[C@H]3[C@@H](F)[C@H](n4cnc5c(N)ncnc54)O[C@@H]3COP(=O)(O)O[C@H]3[C@@H](F)[C@H](n4cnc5c(N)ncnc54)O[C@@H]3COP(=O)(O)O[C@H]2[C@H]1F [cFA6, 2’-,2’’-,2’’’,2’’’’,2’’’’’,2’’’’’’-hexadeoxy-2’-,2’’,2’’’,2’’’’,2’’’’’,2’’’’’’-hexafluoro-cyclic hexaadenosine monophosphate]
- EC50 (EiCsm6 [2]): 170 nM
- X-ray crystal structure of the complex, 2.4 Å (EiCsm6 [3]): we co-crystallized EiCsm6 with cFA6 and determined the structure of the complex

B1: Enterococcus italicus Csm6 (EiCsm6), wild type (enzyme)
chain: T1 sequence (E6LHV2 1-430)
notes: Csm6 ribonuclease (CARF and HEPN domains) of the type III CRISPR-Cas system of Enterococcus italicus DSM-15952; gene amplified from genomic DNA; Cloned into the 1B vector (Addgene 29653): N-terminal hexahistidine tag followed by a TEV site, removed with TEV protease; Crystallised with the small-molecule ligand cFA6 (PDB 6TUG) or with cA6; also called WT EiCsm6; source: E. coli BL21 Star (DE3), …
- stoichiometry N [4]: 2
